Patent US20260116920A1, “HUMAN TRANSFERRIN RECEPTOR BINDING PEPTIDE” (PEPTIDREAM INC., priority 2021, published 2026)
Positions of bridges follow the written chain, without caps; N, C: chain ends. Non-standard residues stand in square brackets, D forms with d. Residues, ends and D or L forms follow the SMILES beside them. *: point of attachment. Trp(1-CH2COOH) = N[C@@H](Cc1cn(CC(=O)O)c2ccccc12)C(=O)O; BCN(endo) = O=C(OC[C@@H]1[C@@H]2CCC#CCC[C@@H]21)*; Phe(3-COOH) = N[C@@H](Cc1cccc(C(=O)O)c1)C(=O)O; NMePhe(3-Cl) = CN[C@@H](Cc1cccc(Cl)c1)C(=O)O; 3Pal(6-NH2) = Nc1ccc(C[C@H](N)C(=O)O)cn1; NMeY = CN[C@@H](Cc1ccc(O)cc1)C(=O)O; 3Pal = N[C@@H](Cc1cccnc1)C(=O)O; PEG4 = NCCOCCOCCOCCOCCC(=O)O; Carboxymethyl = O=C(O)C*

Molecular target: T1, human transferrin receptor (hTfR) (Homo sapiens, UniProt P02786)
T1 construct: made in house
Assay: Evaluation of molecular interaction between transferrin receptor (hTfR) and peptide using surface plasmon resonance (SPR)
Assay type: binding
Details: KD class for binding to hTfR by SPR; peptide with the linker shown in the same line; 'low signal indicates no activity'; read-out: SPR
Summary of the method: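 Recombinant hTfR dimer (0.5 μM) immobilized on Ni-loaded NTA chip via EDC/NHS, ethanolamine-capped. Peptides at 5–100 nM in HEPES pH 8.0 buffer with 150 mM NaCl, 0.05% Tween 20, 0.1% BSA, 1.0% DMSO, flowed by single-cycle kinetics; KD from least-squares fit of sensorgrams.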

T1 sequence (P02786 89-760 limits assumed): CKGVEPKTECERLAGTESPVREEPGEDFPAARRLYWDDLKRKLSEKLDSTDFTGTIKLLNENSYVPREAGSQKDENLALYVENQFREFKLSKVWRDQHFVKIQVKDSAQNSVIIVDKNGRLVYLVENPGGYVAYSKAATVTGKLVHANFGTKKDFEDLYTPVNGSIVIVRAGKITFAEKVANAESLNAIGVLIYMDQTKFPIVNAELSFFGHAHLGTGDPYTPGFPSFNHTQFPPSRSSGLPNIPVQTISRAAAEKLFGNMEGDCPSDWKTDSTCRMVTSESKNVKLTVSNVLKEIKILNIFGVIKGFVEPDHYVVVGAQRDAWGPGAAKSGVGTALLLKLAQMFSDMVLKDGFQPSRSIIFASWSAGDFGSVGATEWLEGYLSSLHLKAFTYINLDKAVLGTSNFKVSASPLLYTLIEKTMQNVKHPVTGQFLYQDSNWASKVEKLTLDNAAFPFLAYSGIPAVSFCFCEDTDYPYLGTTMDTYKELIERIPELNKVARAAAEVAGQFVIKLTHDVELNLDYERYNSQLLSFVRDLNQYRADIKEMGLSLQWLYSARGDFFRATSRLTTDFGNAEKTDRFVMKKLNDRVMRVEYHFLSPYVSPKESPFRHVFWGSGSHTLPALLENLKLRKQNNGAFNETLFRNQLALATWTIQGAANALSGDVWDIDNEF

| Structure (SMILES) | Kd [nM] |
| --- | --- |
| CC[C@H](C)[C@@H]1NC(=O)[C@H](Cc2ccc(OCC(=O)O)cc2)NC(=O)[C@H](Cc2ccc(O)cc2)NC(=O)[C@H](CC(N)=O)NC(=O)[C@H](Cc2cn(CC(=O)O)c3ccccc23)NC(=O)[C@H](C(C)C)NC(=O)[C@H](Cc2cccc(Cl)c2)N(C)C(=O)[C@H](C(C)C)NC(=O)[C@H](C)NC(=O)CSC[C@@H](C(=O)NCC(=O)N[C@H](CCC(=O)O)C(=O)N[C@H](CCC(=O)O)C(=O)N[C@H](CCC(=O)O)C(=O)N[C@H](CO)C(=O)N[C@H](CO)C(=O)N[C@@H](CCCCNC(=O)OC[C@@H]2[C@@H]3CCC#CCC[C@@H]32)C(N)=O)NC(=O)[C@H](Cc2ccc(O)cc2)N(C)C(=O)[C@H](Cc2ccccc2)NC(=O)[C@H](CCCNC(=N)N)NC(=O)[C@H](CCCNC(=N)N)NC(=O)[C@H]([C@@H](C)CC)NC1=O [894_3197] | < 1 |
| CC[C@H](C)[C@@H]1NC(=O)[C@H](Cc2ccc(OCC(=O)O)cc2)NC(=O)[C@H](Cc2ccc(O)cc2)NC(=O)[C@H](CC(N)=O)NC(=O)[C@H](Cc2cn(CC(=O)O)c3ccccc23)NC(=O)[C@H](C(C)C)NC(=O)[C@H](Cc2cccc(Cl)c2)N(C)C(=O)[C@H](C(C)C)NC(=O)[C@H](C)NC(=O)CSC[C@@H](C(=O)NCC(=O)N[C@H](CO)C(=O)N[C@H](CO)C(=O)N[C@H](CO)C(=O)N[C@H](CO)C(=O)N[C@H](CO)C(=O)N[C@@H](CCCCNC(=O)OC[C@@H]2[C@@H]3CCC#CCC[C@@H]32)C(N)=O)NC(=O)[C@H](Cc2ccc(O)cc2)N(C)C(=O)[C@H](Cc2ccccc2)NC(=O)[C@H](CCCNC(=N)N)NC(=O)[C@H](CCCNC(=N)N)NC(=O)[C@H]([C@@H](C)CC)NC1=O [894_3198] ({CH2CO}-AV[NMePhe(3-Cl)]V[Trp(1-CH2COOH)]NYY(Carboxymethyl)IIRRF[NMeY]CG[dS][dS][dS][dS][dS]K(BCN(endo))-NH2; thioether N-15) | < 1 |
| CC[C@H](C)[C@@H]1NC(=O)[C@H](Cc2ccc(OCC(=O)O)cc2)NC(=O)[C@H](Cc2ccc(O)cc2)NC(=O)[C@H](CC(N)=O)NC(=O)[C@H](Cc2cn(CC(=O)O)c3ccccc23)NC(=O)[C@H](C(C)C)NC(=O)[C@H](Cc2cccc(Cl)c2)N(C)C(=O)[C@H](C(C)C)NC(=O)[C@H](C)NC(=O)CSC[C@@H](C(=O)NCC(=O)N[C@@H](CCCCNC(=O)OC[C@@H]2[C@@H]3CCC#CCC[C@@H]32)C(N)=O)NC(=O)[C@H](Cc2ccc(O)cc2)N(C)C(=O)[C@H](Cc2ccccc2)NC(=O)[C@H](CCCNC(=N)N)NC(=O)[C@H](CCC(=O)NCCOCCOCCOCCOCCOCCOCCOCCOC)NC(=O)[C@H]([C@@H](C)CC)NC1=O [894_3199] | < 1 |
| CC[C@H](C)[C@@H]1NC(=O)[C@H](Cc2ccc(O)cc2)NC(=O)[C@H](Cc2ccc(O)cc2)NC(=O)[C@H](CC(N)=O)NC(=O)[C@H](Cc2c[nH]c3ccccc23)N(C)C(=O)[C@H](C(C)C)NC(=O)[C@H](Cc2ccccc2)N(C)C(=O)[C@H](C(C)C)NC(=O)[C@H](C)NC(=O)CSC[C@@H](C(=O)NCC(=O)N[C@H](CO)C(=O)N[C@H](CO)C(=O)N[C@H](CO)C(=O)N[C@H](CO)C(=O)N[C@H](CO)C(=O)N[C@@H](CCCCN=[N+]=[N-])C(N)=O)NC(=O)[C@H](Cc2ccc(O)cc2)N(C)C(=O)[C@H](Cc2ccc(O)cc2)NC(=O)[C@H](CCCNC(=N)N)NC(=O)[C@H](CCCCN)NC(=O)[C@H]([C@@H](C)CC)NC1=O [894_3200] | < 1 |
| CC[C@H](C)[C@@H]1NC(=O)[C@H](Cc2cccnc2)NC(=O)[C@H](Cc2ccc(N)nc2)NC(=O)[C@H](CC(N)=O)NC(=O)[C@H](Cc2c[nH]c3ccccc23)NC(=O)[C@H](C(C)C)NC(=O)[C@H](Cc2cccc(Cl)c2)N(C)C(=O)[C@H](C(C)C)NC(=O)[C@H](C)NC(=O)CSC[C@@H](C(=O)NCCOCCOCCOCCOCCC(N)=O)NC(=O)[C@H](Cc2ccc(O)cc2)N(C)C(=O)[C@H](Cc2cccc(C(=O)O)c2)NC(=O)[C@H](CCCNC(=N)N)NC(=O)[C@H](CCCNC(=N)N)NC(=O)[C@H]([C@@H](C)CC)NC1=O [SEQ ID No. 198] ({CH2CO}-AV[NMePhe(3-Cl)]VWN[3Pal(6-NH2)][3Pal]IIRR[Phe(3-COOH)][NMeY]C[PEG4]-NH2; thioether N-15) | 1 to 100 |

Same assay, conditions: surface plasmon resonance, binding to hTfR; KD class symbol; read-out: SPR (KD value)

| Structure (SMILES) | Kd [nM] |
| --- | --- |
| CC[C@H](C)[C@@H]1NC(=O)[C@H](Cc2ccc(O)cc2)NC(=O)[C@H](Cc2ccc(O)cc2)NC(=O)[C@H](CC(N)=O)NC(=O)[C@H](Cc2c[nH]c3ccccc23)NC(=O)[C@H](C(C)C)NC(=O)[C@H](Cc2ccccc2)N(C)C(=O)[C@H](C(C)C)NC(=O)[C@H](C)NC(=O)CSC[C@@H](C(N)=O)NC(=O)[C@H](Cc2ccc(O)cc2)N(C)C(=O)[C@H](Cc2ccccc2)NC(=O)[C@H](CCCNC(=N)N)NC(=O)[C@H](CCCCNC(=O)CCOCCOCCOCCOC)NC(=O)[C@H]([C@@H](C)CC)NC1=O [compound 1] | 1 to 100 |
| CC[C@H](C)[C@@H]1NC(=O)[C@H](Cc2ccc(O)cc2)NC(=O)[C@H](Cc2ccc(O)cc2)NC(=O)[C@H](CC(N)=O)NC(=O)[C@H](Cc2c[nH]c3ccccc23)NC(=O)[C@H](C(C)C)NC(=O)[C@H](Cc2ccccc2)N(C)C(=O)[C@H](C(C)C)NC(=O)[C@H](C)NC(=O)CSC[C@@H](C(N)=O)NC(=O)[C@H](Cc2ccc(O)cc2)N(C)C(=O)[C@H](Cc2ccccc2)NC(=O)[C@H](CCCCNC(=O)CCOCCOCCOCCOC)NC(=O)[C@H](CCCNC(=N)N)NC(=O)[C@H]([C@@H](C)CC)NC1=O [compound 2] | 1 to 100 |
| CC[C@H](C)[C@@H]1NC(=O)[C@H](Cc2ccc(O)cc2)NC(=O)[C@H](Cc2ccc(O)cc2)NC(=O)[C@H](CC(N)=O)NC(=O)[C@H](Cc2c[nH]c3ccc(Cl)cc23)NC(=O)[C@H](C(C)C)NC(=O)[C@H](Cc2ccc(F)cc2)N(C)C(=O)[C@H](C(C)C)NC(=O)[C@H](C)NC(=O)CSC[C@@H](C(N)=O)NC(=O)[C@H](Cc2ccc(O)cc2)N(C)C(=O)[C@H](Cc2ccccc2)NC(=O)[C@H](CCCCNC(=O)CCOCCOCCOCCOC)NC(=O)[C@H](CCCNC(=N)N)N(C)C(=O)[C@H]([C@@H](C)CC)NC1=O [compound 3] | 1 to 100 |
| CC[C@H](C)[C@@H]1NC(=O)[C@H](Cc2ccc(OC)cc2)NC(=O)[C@H](Cc2ccc(O)cc2)NC(=O)[C@H](CC(N)=O)NC(=O)[C@H](Cc2c[nH]c3ccc(Cl)cc23)NC(=O)[C@H](C(C)C)NC(=O)[C@H](Cc2ccc(F)cc2)N(C)C(=O)[C@H](C(C)C)NC(=O)[C@H](C)NC(=O)CSC[C@@H](C(N)=O)NC(=O)[C@H](Cc2ccc(O)cc2)N(C)C(=O)[C@H](Cc2ccccc2)NC(=O)[C@H](CCCCNC(=O)CCOCCOCCOCCOC)NC(=O)[C@H](CCCNC(=N)N)N(C)C(=O)[C@H]([C@@H](C)CC)NC1=O [compound 4] | 1 to 100 |
| CC[C@H](C)[C@@H]1NC(=O)[C@H](Cc2ccc(O)cc2)NC(=O)[C@H](Cc2ccc(O)cc2)NC(=O)[C@H](CC(N)=O)NC(=O)[C@H](Cc2c[nH]c3ccccc23)N(C)C(=O)[C@H](C(C)C)NC(=O)[C@H](Cc2ccc(F)cc2)N(C)C(=O)[C@H](C(C)C)NC(=O)[C@H](C)NC(=O)CSC[C@@H](C(N)=O)NC(=O)[C@H](Cc2ccc(O)cc2)N(C)C(=O)[C@H](Cc2ccccc2)NC(=O)[C@@H](CCCNC(=N)N)NC(=O)[C@H](CCCCNC(=O)CCOCCOCCOCCOC)NC(=O)[C@H]([C@@H](C)CC)NC1=O [compound 5] | 1 to 100 |
| CC[C@H](C)[C@@H]1NC(=O)[C@H](Cc2ccc(OC)cc2)NC(=O)[C@H](Cc2ccc(O)cc2)NC(=O)[C@H](CC(N)=O)NC(=O)[C@H](Cc2c[nH]c3ccccc23)N(C)C(=O)[C@H](C(C)C)NC(=O)[C@H](Cc2ccc(F)cc2)N(C)C(=O)[C@H](C(C)C)NC(=O)[C@H](C)NC(=O)CSC[C@@H](C(N)=O)NC(=O)[C@H](Cc2ccc(O)cc2)N(C)C(=O)[C@H](Cc2ccccc2)NC(=O)[C@@H](CCCNC(=N)N)NC(=O)[C@H](CCCCNC(=O)CCOCCOCCOCCOC)NC(=O)[C@H]([C@@H](C)CC)NC1=O [compound 6] | 1 to 100 |
| CC[C@H](C)[C@@H]1NC(=O)[C@H](Cc2ccc(O)cc2)NC(=O)[C@H](Cc2ccc(O)cc2)NC(=O)[C@H](CC(N)=O)NC(=O)[C@H](Cc2c[nH]c3ccccc23)N(C)C(=O)[C@H](C(C)C)NC(=O)[C@H](Cc2ccc(F)cc2)N(C)C(=O)[C@H](C(C)C)NC(=O)[C@H](C)NC(=O)CSC[C@@H](C(N)=O)NC(=O)[C@H](Cc2ccc(O)cc2)N(C)C(=O)[C@H](Cc2ccccc2)NC(=O)[C@H](CCCCNC(=O)CCOCCOCCOCCOC)NC(=O)[C@H](CCCNC(=N)N)N(C)C(=O)[C@H]([C@@H](C)CC)NC1=O [compound 7] | 1 to 100 |
| CC[C@H](C)[C@@H]1NC(=O)[C@H](Cc2ccc(OC)cc2)NC(=O)[C@H](Cc2ccc(O)cc2)NC(=O)[C@H](CC(N)=O)NC(=O)[C@H](Cc2c[nH]c3ccccc23)N(C)C(=O)[C@H](C(C)C)NC(=O)[C@H](Cc2ccc(F)cc2)N(C)C(=O)[C@H](C(C)C)NC(=O)[C@H](C)NC(=O)CSC[C@@H](C(N)=O)NC(=O)[C@H](Cc2ccc(O)cc2)N(C)C(=O)[C@H](Cc2ccccc2)NC(=O)[C@H](CCCCNC(=O)CCOCCOCCOCCOC)NC(=O)[C@H](CCCNC(=N)N)N(C)C(=O)[C@H]([C@@H](C)CC)NC1=O [compound 8] | 1 to 100 |
| CC[C@H](C)[C@@H]1NC(=O)[C@H](Cc2ccc(O)cc2)NC(=O)[C@H](Cc2ccc(O)cc2)NC(=O)[C@H](CC(=O)N(C)C)NC(=O)[C@H](Cc2c[nH]c3ccccc23)NC(=O)[C@H](C(C)C)NC(=O)[C@H](Cc2ccccc2)N(C)C(=O)[C@H](C(C)C)NC(=O)[C@H](C)NC(=O)CSC[C@@H](C(N)=O)NC(=O)[C@H](Cc2ccc(O)cc2)N(C)C(=O)[C@H](Cc2ccc(O)cc2)NC(=O)[C@H](CCCNC(=N)N)NC(=O)[C@H](CCCNC(=N)N)NC(=O)[C@H]([C@@H](C)CC)NC1=O [compound 9] | 100 to 1000 |
| CC[C@H](C)[C@@H]1NC(=O)[C@H](Cc2ccc(OC)cc2)NC(=O)[C@H](Cc2ccc(O)cc2)NC(=O)[C@H](CC(N)=O)NC(=O)[C@H](Cc2c[nH]c3ccccc23)N(C)C(=O)[C@H](C(C)C)NC(=O)[C@H](Cc2cccc(Cl)c2)N(C)C(=O)[C@H](C(C)C)NC(=O)[C@H](C)N(C)C(=O)CSC[C@@H](C(=O)NCCOCCOCCOCCOCCC(N)=O)NC(=O)[C@H](Cc2ccc(O)cc2)N(C)C(=O)[C@H](Cc2ccccc2)NC(=O)[C@@H](C)NC(=O)[C@H](CCCNC(=N)N)NC(=O)[C@H]([C@@H](C)CC)NC1=O [compound 10] | 1 to 100 |
